Laboratory results from patent publication EP1377579B1 (Aventis Pharmaceuticals Inc., priority 2000, dated 2002).
Where a name gives a salt, the structure may show the parent alone.

Columns and labels:
[1] = test system: MDA-MB-435; experiment: In vitro proliferation assay (MTT), MDA-MB-435; type: cell-based, human; details: Homo sapiens, MDA-MB-435, MTT assay; value (SD, n) where given; read-out: MB-435 Breast (IC50 µM)
Procedure: (§1) The proliferation of tumor cells can be measured using a tetrazolium salt-based assay known as the MTT (3-[4,5-Dimethylthiazol-2-yl]-2,5-diphenyltetrazolium bromide) assay. […] For the assay, the cell lines are plated onto 96 well plates at 1000 to 2500 cells/well (depending on the properties of the individual cell lines), left to attach and recover overnight. […] After 3 days, the cells are incubated with MTT dye (3-[4,5-Dimethylthiazol-2-yl]-2,5-diphenyltetrazolium bromide, Sigma # M5655, 10 mg/ml in Hank's Buffered Saline) to estimate the amount of live cells remaining vs. concentration for the test compounds. […] The MTT and culture medium is then removed from the cultures and 200 µl of DMSO is added to solubilize the dye from the cell layer. The absorbance at 570 nm is determined for each culture using a Spectramax plate reader (Molecular Devices).
(§2) IC50s were determined from the raw data from either the MTT or SRB assays.
(§3) All of the cell lines were obtained from American Type Tissue Collection, with the ATCC accession number in parentheticals. MCF-7 and MDA-MB-231 cells were grown in improved minimum essential medium (Biofluids) without phenol red, supplemented with 5 % fetal bovine serum, 0.01 mg/ml gentamicin and 3 mM L-glutamine.

[2] = target: cdk2/cyclin E (Homo sapiens, UniProt P24941); experiment: Cyclin-dependent kinase assay, cdk2/cyclin E; details: CDK2 IC50, nM, GST-pRb substrate, 10 µM ATP
[3] = test system: PC-3; experiment: In vitro proliferation assay (MTT), PC-3; type: cell-based, human; details: Homo sapiens, PC-3, MTT assay; value (SD, n) where given; read-out: PC-3 Prostate (IC50 µM)
Procedure: as §1, §2, §3

[4] = target: cdk1/cyclin B (Homo sapiens, UniProt P06493); experiment: Cyclin-dependent kinase assay, cdk1/cyclin B; details: CDK1 IC50, nM, Histone H1, 10 µM ATP
[5] = target: cdk4/cyclin D1 (Homo sapiens, UniProt P11802); experiment: Cyclin-dependent kinase assay, cdk4/cyclin D1; type: biochemical; details: cyclin D1/cdk4; GST-pRb substrate, 10 µM ATP
cdk4/cyclin D1, sequence (P11802 whole entry): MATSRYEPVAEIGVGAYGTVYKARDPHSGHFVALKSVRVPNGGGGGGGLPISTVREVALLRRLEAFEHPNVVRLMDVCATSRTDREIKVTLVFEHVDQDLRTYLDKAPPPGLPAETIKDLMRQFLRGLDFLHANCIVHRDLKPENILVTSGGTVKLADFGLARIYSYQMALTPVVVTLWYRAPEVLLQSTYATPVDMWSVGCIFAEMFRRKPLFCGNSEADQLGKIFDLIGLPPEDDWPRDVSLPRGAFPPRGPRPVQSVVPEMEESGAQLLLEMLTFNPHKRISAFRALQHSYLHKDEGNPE
cdk4/cyclin D1, sequence (P24385 whole entry partner): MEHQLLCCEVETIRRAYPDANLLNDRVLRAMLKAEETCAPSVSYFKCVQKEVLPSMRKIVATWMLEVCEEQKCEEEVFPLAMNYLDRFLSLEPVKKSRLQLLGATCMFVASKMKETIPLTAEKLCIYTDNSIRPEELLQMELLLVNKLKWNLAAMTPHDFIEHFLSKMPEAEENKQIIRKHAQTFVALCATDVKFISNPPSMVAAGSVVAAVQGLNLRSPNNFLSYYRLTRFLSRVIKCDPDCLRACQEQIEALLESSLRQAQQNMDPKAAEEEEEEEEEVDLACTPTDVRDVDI

cdk1/cyclin B, sequence (P06493 whole entry): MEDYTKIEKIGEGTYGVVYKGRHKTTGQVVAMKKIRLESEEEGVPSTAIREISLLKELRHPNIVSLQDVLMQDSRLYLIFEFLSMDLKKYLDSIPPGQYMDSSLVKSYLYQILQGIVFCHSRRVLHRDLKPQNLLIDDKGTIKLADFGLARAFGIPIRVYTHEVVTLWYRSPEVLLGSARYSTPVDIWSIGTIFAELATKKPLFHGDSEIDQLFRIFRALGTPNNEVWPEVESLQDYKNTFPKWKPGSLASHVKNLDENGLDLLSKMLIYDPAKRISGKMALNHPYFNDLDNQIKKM
cdk1/cyclin B, sequence (P14635 whole entry partner): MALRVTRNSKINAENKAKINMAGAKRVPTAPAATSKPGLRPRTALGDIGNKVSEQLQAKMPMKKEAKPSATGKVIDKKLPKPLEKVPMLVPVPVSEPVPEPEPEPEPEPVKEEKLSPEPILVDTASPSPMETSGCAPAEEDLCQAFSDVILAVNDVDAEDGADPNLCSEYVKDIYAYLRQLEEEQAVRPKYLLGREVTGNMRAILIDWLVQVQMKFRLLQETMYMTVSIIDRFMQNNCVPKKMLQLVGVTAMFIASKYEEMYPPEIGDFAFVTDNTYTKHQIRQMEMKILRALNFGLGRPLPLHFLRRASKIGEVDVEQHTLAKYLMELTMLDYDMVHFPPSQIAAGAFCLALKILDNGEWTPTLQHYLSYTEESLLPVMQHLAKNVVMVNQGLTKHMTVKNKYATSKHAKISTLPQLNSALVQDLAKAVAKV

Row | IC50 [1] [µM] | IC50 [2] [nM] | IC50 [3] [µM] | IC50 [4] [nM] | IC50 [5] [nM] | Structure (SMILES)
1 | 0.47 | 77 | 0.59 |  |  | NC1CCC(Nc2nc(NC3CCN(C(=O)C4CC4c4ccccc4)CC3)c3ncn(C4CCCC4)c3n2)CC1 (racemic) [compound 43, (±)-trans-1-{4-[2-(4-Amino-cyclohexylamino)-9-cyclopentyl-9H-purin-6-ylamino]-piperidin-1-y1}-1-(2-phenyl-cyclopropyl)-methanone dihydrochloride]
2 | 1.67 | 44 | 1.58 | 43 | 206 | N[C@H]1CC[C@H](Nc2nc(NC3CCN(C(=O)C(O)c4ccccc4)CC3)c3ncn(C4CCCC4)c3n2)CC1 (mixture of isomers) [compound 50, (±)-trans-1-{4-[2-(4-Amino-cyclohexylamino)-9-cyclopentyl-9H-purin-6-ylamino]-piperidin-1-yl}-2-hydroxy-2-phenyl-ethanone dihydrochloride]
3 | 0.96 | 480 | 1.13 | 193 | 1300 | CCCCC(CC)C(=O)N1CCC(Nc2nc(N[C@H]3CC[C@H](N)CC3)nc3c2ncn3C2CCCC2)CC1 (mixture of isomers) [compound 57, (±)-trans-1-{4-[2-(4-Amino-cyclohexylamino)-9-cyclopentyl-9H-purin-6-ylamino]-piperidin-1-yl}-2-ethyl-hexan-1-one dihydrochloride]
4 | 1.52 |  | 1.65 |  |  | CCCCC(CC)COC(=O)N1CCC(Nc2nc(N[C@H]3CC[C@H](N)CC3)nc3c2ncn3C2CCCC2)CC1 (mixture of isomers) [compound 97, (±)-trans-4-[2-(4-Amino-cyclohexylamino)-9-cyclopentyl-9H-purin-6-ylamino]-piperidine-1-carboxylic acid 2-ethyl-hexyl ester dihydrochloride]
5 | 0.28 | 79 | 0.39 | 75 | 1620 | N[C@H]1CC[C@H](Nc2nc(NC3CCN(C(=O)NC4CC4c4ccccc4)CC3)c3ncn(C4CCCC4)c3n2)CC1 (mixture of isomers) [compound 156, (±)-trans-4-[2-(4-Amino-cyclohexylamino)-9-cyclopentyl-9H-purin-6-ylamino]-piperidine-1-carboxylic acid (2-phenyl-cyclopropyl)-amide dihydrochloride]
6 | 1.43 | 121 | 1.45 |  |  | CCCCc1ccc(C(=O)N2CCC(Nc3nc(N[C@H]4CC[C@H](N)CC4)nc4c3ncn4C3CCCC3)CC2)cc1 [compound 21, trans-1-{4-[2-(4-Amino-cyclohexylamino)-9-cyclopentyl-9H-puxin-6-ylamino]-piperidin-1-yl}-1-(4-butyl-phenyl)-methanone]
7 | 2.18 |  | 3.97 |  |  | CCCCCCCc1ccc(C(=O)N2CCC(Nc3nc(N[C@H]4CC[C@H](N)CC4)nc4c3ncn4C3CCCC3)CC2)cc1 [compound 24, trans-1-{4-[2-(4-Amino-cyclohexylamino)-9-cyclopentyl-9H-purin-6-ylamino]-piperidin-1-yl}-1-(4-heptyl-phenyl)-methanone]
8 | 1.73 |  | 2 |  |  | N[C@H]1CC[C@H](Nc2nc(NC3CCN(C(=O)c4ccc([N+](=O)[O-])cc4)CC3)c3ncn(C4CCCC4)c3n2)CC1 [compound 27, trans-1-{4-[2-(4-Amino-cyclohexylamino)-9-cyclopentyl-9H-purin-6-ylamino]-piperidin-1-yl}-1-(4-nitro-phenyl)-methanone]
9 | 0.75 | 77 | 0.8 |  |  | CC(C)=CC(=O)N1CCC(Nc2nc(N[C@H]3CC[C@H](N)CC3)nc3c2ncn3C2CCCC2)CC1 [compound 30, trans 1-{4-[2-(4-Amino-cyclohexylamino)-9-cyclopentyl-9#H!-purin-6-ylamino]-piperidin-1-yl}-3-methyl-but-2-en-1-one dihydrochloride]
10 |  | 66 |  |  |  | N[C@H]1CC[C@H](Nc2nc(NC3CCN(C(=O)/C=C/c4ccccc4)CC3)c3ncn(C4CCCC4)c3n2)CC1 [compound 62, trans-(E)-1-{4-[2-(4-Amino-cyclohexylamino)-9-cyclopentyl-9H-purin-6-ylamino]-piperidin-1-yl}-3-phenyl-propenone dihydrochloride]
11 | 0.38 |  | 0.58 |  |  | N[C@H]1CC[C@H](Nc2nc(NC3CCN(C(=O)OCc4ccccc4)CC3)c3ncn(C4CCCC4)c3n2)CC1 [compound 90, trans-4-[2-(4-Amino-cyclohexylamino)-9-cyclopentyl-9H-purin-6-ylamino]-piperidine-1-carboxylic acid benzyl ester dihydrochloride]
12 | 0.36 |  | 0.37 |  |  | CC(C)COC(=O)N1CCC(Nc2nc(N[C@H]3CC[C@H](N)CC3)nc3c2ncn3C2CCCC2)CC1 [compound 91, trans-4-[2-(4-Amino-cyclohexylamino)-9-cyclopentyl-9H-purin-6-ylamino]-piperidine-1-carboxylic acid isobutyl ester dihydrochloride]
13 | 0.35 |  | 0.35 |  |  | CCCOC(=O)N1CCC(Nc2nc(N[C@H]3CC[C@H](N)CC3)nc3c2ncn3C2CCCC2)CC1 [compound 96, trans-4-[2-(4-Amino-cyclohexylamino)-9-cyclopentyl-9H-purin-6-ylamino]-piperidine-1-carboxylic acid propyl ester dihydrochloride]
14 | 0.66 |  | 0.82 |  |  | CCCCCCOC(=O)N1CCC(Nc2nc(N[C@H]3CC[C@H](N)CC3)nc3c2ncn3C2CCCC2)CC1 [compound 98, trans-4-[2-(4-Amino-cyclohexylamino)-9-cyclopentyl-9H-purin-6-ylamino]-piperidine-1-carboxylic acid hexyl ester dihydrochloride]
15 | 0.24 | 80 | 0.27 | 31 |  | COc1cc(COC(=O)N2CCC(Nc3nc(N[C@H]4CC[C@H](N)CC4)nc4c3ncn4C3CCCC3)CC2)c([N+](=O)[O-])cc1OC [compound 101, trans-4-[2-(4-Amino-cyclohexylamino)-9-cyclopentyl-9H-purin-6-ylamino]-piperidine-1-carboxylic acid 4,5-dimethoxy-2-nitro-benzyl ester dihydrochloride]
16 | 0.51 |  | 0.44 |  |  | CC(C)(C)COC(=O)N1CCC(Nc2nc(N[C@H]3CC[C@H](N)CC3)nc3c2ncn3C2CCCC2)CC1 [compound 103, trans-4-[2-(4-Amino-cyclohexylamino)-9-cyclopentyl-9H-purin-6-ylamino]-piperidine-1-carboxylic acid 2,2-dimethyl-propyl ester dihydrochloride]
17 | 0.49 | 7 | 0.57 |  |  | N[C@H]1CC[C@H](Nc2nc(NC3CCN(S(=O)(=O)c4cccs4)CC3)c3ncn(C4CCCC4)c3n2)CC1 [compound 128, trans-N^2&-(4-Amino-cyclohexyl)-9-cyclopentyl-N^6-[1-(thiophene-2-sulfonyl)-piperidin-4-yl]-9H-purine-2,6-diamine dihydrochloride]
18 |  | 28 |  | 20 | 74 | Cc1cccc(NC(=O)N2CCC(Nc3nc(N[C@H]4CC[C@H](N)CC4)nc4c3ncn4C3CCCC3)CC2)c1 [compound 210, trans-4-[2-(4-Amino-cyclohexylamino)-9-cyclopentyl-9H-purin-6-ylamino]-piperidine-1-carboxylic acid (3-methyl-phenyl)-amide dihydrochloride]
